The values below come from patent US20110124787A1, “RUBBER COMPOSITION” (BRIDGESTONE CORPORATION, priority 2008, published 2011).

For the compound `CCN(Sc1nc2ccccc2s1)C(C)(C)C` [N-ethyl-N-t-butylbenzothiazole-2-sulfenamide], the melting point (commonly the temperature of the solid-liquid transition) lay within 60 to 61 °C.

Regarding `CN(Sc1nc2ccccc2s1)C(C)(C)C` [N-methyl-N-t-butylbenzothiazole-2-sulfenamide], the melting point lay within 56 to 58 °C.

In the case of `CCCCN(Sc1nc2ccccc2s1)C(C)(C)C` [N-n-butyl-N-t-butylbenzothiazole-2-sulfenamide], the melting point lay in the range of 55 to 56 °C.
